Measured values from patent publication USRE48335E1, “Polymyxin derivatives as antimicrobial compounds” (priority 2014, dated 2020).
Values after ≈ are worked out from the molar mass of the structure shown. Positions of bridges follow the written chain, without caps; N, C: chain ends. Non-standard residues stand in square brackets, D forms with d. Residues, ends and D or L forms follow the SMILES beside them. *: point of attachment. dNle = CCCC[C@@H](N)C(=O)O; Octanoyl = CCCCCCCC(=O)*; Dab = NCC[C@H](N)C(=O)O; Abu = CC[C@H](N)C(=O)O; Dap = NC[C@H](N)C(=O)O

Key:
[1] = system: K. pneumoniae FADDI-KP032; test: In vivo efficacy in mouse blood infection model (neutropenic Swiss mice); settings: compound, free base 4 mg/kg intravenously 2 h after inoculation, blood at 4 h
In short: (§1)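 Neutropenic Swiss mice (cyclophosphamide 150 mg/kg day −4, 100 mg/kg day −1, i.p.) infected i.v. with early log-phase bacteria; 4 mg/kg free base i.v. given 2 h post-inoculation. Blood CFU by cardiac puncture 4 h post-dose; Δlog10 CFU/mL treated versus saline controls.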

[2] = system: P. aeruginosa ATCC 27853; test: as above; settings: compound, free base 4 mg/kg intravenously 2 h after inoculation, blood at 4 h
In short: as §1

[3] = system: A. baumannii ATCC 19606; test: as above; settings: compound, free base 4 mg/kg intravenously 2 h after inoculation, blood at 4 h
In short: as §1

[4] = system: Enterobacter cloacae
In short: (§2)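 Broth microdilution MICs following CLSI standards in cation-adjusted Mueller-Hinton broth. Lipopeptides tested as TFA salts; polymyxin B sulphate served as control.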

[5] = system: Pseudomonas aeruginosa
In short: as §2

[6] = system: Acinetobacter baumannii
In short: as §2

[7] = system: Klebsiella pneumoniae
In short: as §2

SMILES	Δ log (Treated-Control at 4 h) [1]	Δ log (Treated-Control at 4 h) [2]	Δ log (Treated-Control at 4 h) [3]	Minimum inhibitory concentration, Ec FADDI-EC001 [4]	Minimum inhibitory concentration, Ec FADDI-EC003 [4]	Minimum inhibitory concentration, Ec FADDI-EC006 [4]	Minimum inhibitory concentration, Pa ATCC 27853 [5]	Minimum inhibitory concentration, Pa FADDI-PA022 [5]	Minimum inhibitory concentration, Pa FADDI-PA025 [5]	MIC [6]	Minimum inhibitory concentration, Ab A ATCC 17978 [6]	Minimum inhibitory concentration, Ab ATCC 19606 [6]	Minimum inhibitory concentration, Ab FADDI-AB034 [6]	MIC [7]	MIC [5]
CCCCCCCC(=O)N[C@@H](CCN)C(=O)N[C@H](C(=O)N[C@H](CO)C(=O)N[C@H]1CCNC(=O)[C@H]([C@@H](C)O)NC(=O)[C@H](CCN)NC(=O)[C@H](CCN)NC(=O)[C@H]([C@@H](C)O)NC(=O)[C@@H](CCCC)NC(=O)[C@H](CCN)NC1=O)[C@@H](C)O [Compound 7] (Octanoyl-[Dab]T[dS][Dab][Dab][dNle]T[Dab][Dab]T; lactam 4-C)	−3.39 log10 CFU/mL	−0.61 log10 CFU/mL	−2.87 log10 CFU/mL	0.25 µg/mL (≈ 0.221 µM)	0.25 µg/mL (≈ 0.221 µM)	0.5 µg/mL (≈ 0.442 µM)	2 µg/mL (≈ 1.77 µM)	4 µg/mL (≈ 3.54 µM)	>32 µg/mL	0.25 µg/mL (≈ 0.221 µM)	<0.125 µg/mL	0.25 µg/mL (≈ 0.221 µM)	<0.125 µg/mL	<0.125 µg/mL	–
CCCCCCCC(=O)N[C@@H](CCN)C(=O)N[C@H](C(=O)N[C@@H](CCN)C(=O)N[C@H]1CCNC(=O)[C@H]([C@@H](C)O)NC(=O)[C@H](CCN)NC(=O)[C@H](CCN)NC(=O)[C@H]([C@@H](C)O)NC(=O)[C@@H](CC(C)C)NC(=O)[C@H](CCN)NC1=O)[C@@H](C)O [Compound 20] (Octanoyl-[Dab]T[Dab][Dab][Dab][dL]T[Dab][Dab]T; lactam 4-C)	−3.50 log10 CFU/mL	−2.13 log10 CFU/mL	−1.86 log10 CFU/mL	<0.125 µg/mL	0.5 µg/mL (≈ 0.437 µM)	<0.125 µg/mL	0.5 µg/mL (≈ 0.437 µM)	0.5 µg/mL (≈ 0.437 µM)	>32 µg/mL	4 µg/mL (≈ 3.5 µM)	4 µg/mL (≈ 3.5 µM)	4 µg/mL (≈ 3.5 µM)	2 µg/mL (≈ 1.75 µM)	0.25 µg/mL (≈ 0.219 µM)	0.5 µg/mL (≈ 0.437 µM)
CCCCCCCC(=O)N[C@@H](CCN)C(=O)N[C@H](C(=O)N[C@@H](CCN)C(=O)N[C@H]1CCNC(=O)[C@H]([C@@H](C)O)NC(=O)[C@H](CCN)NC(=O)[C@H](CCN)NC(=O)[C@H]([C@@H](C)O)NC(=O)[C@@H](Cc2ccccc2)NC(=O)[C@H](CCN)NC1=O)[C@@H](C)O [Compound 22] (Octanoyl-[Dab]T[Dab][Dab][Dab][dF]T[Dab][Dab]T; lactam 4-C)	−3.11 log10 CFU/mL	−3.10 log10 CFU/mL	−1.50 log10 CFU/mL	<0.125 µg/mL	<0.125 µg/mL	0.25 µg/mL (≈ 0.212 µM)	1 µg/mL (≈ 0.849 µM)	1 µg/mL (≈ 0.849 µM)	16 µg/mL (≈ 13.6 µM)	1 µg/mL (≈ 0.849 µM)	1 µg/mL (≈ 0.849 µM)	1 µg/mL (≈ 0.849 µM)	0.5 µg/mL (≈ 0.425 µM)	0.5 µg/mL (≈ 0.425 µM)	1 µg/mL (≈ 0.849 µM)
CCCCCCCC(=O)N[C@@H](CCN)C(=O)N[C@H](C(=O)N[C@@H](CCN)C(=O)N[C@H]1CCNC(=O)[C@H]([C@@H](C)O)NC(=O)[C@H](CCN)NC(=O)[C@H](CCN)NC(=O)[C@H](C(C)C)NC(=O)[C@@H](CC(C)C)NC(=O)[C@H](CCN)NC1=O)[C@@H](C)O [Compound 23] (Octanoyl-[Dab]T[Dab][Dab][Dab][dL]V[Dab][Dab]T; lactam 4-C)	−3.88 log10 CFU/mL	−2.48 log10 CFU/mL	−2.82 log10 CFU/mL	<0.125 µg/mL	<0.125 µg/mL	0.25 µg/mL (≈ 0.219 µM)	1 µg/mL (≈ 0.876 µM)	1 µg/mL (≈ 0.876 µM)	4 µg/mL (≈ 3.5 µM)	0.5 µg/mL (≈ 0.438 µM)	0.5 µg/mL (≈ 0.438 µM)	0.5 µg/mL (≈ 0.438 µM)	0.25 µg/mL (≈ 0.219 µM)	<0.125 µg/mL	1 µg/mL (≈ 0.876 µM)
CCCCCCCC(=O)N[C@@H](CCN)C(=O)N[C@H](C(=O)N[C@@H](CCN)C(=O)N[C@H]1CCNC(=O)[C@H]([C@@H](C)O)NC(=O)[C@H](CCN)NC(=O)[C@H](CCN)NC(=O)[C@H]([C@@H](C)O)NC(=O)[C@@H](CCCC)NC(=O)[C@H](CCN)NC1=O)[C@@H](C)O [Compound 24] (Octanoyl-[Dab]T[Dab][Dab][Dab][dNle]T[Dab][Dab]T; lactam 4-C)	−3.21 log10 CFU/mL	−2.31 log10 CFU/mL	−2.16 log10 CFU/mL	<0.125 µg/mL	<0.125 µg/mL	0.25 µg/mL (≈ 0.219 µM)	0.5 µg/mL (≈ 0.437 µM)	0.5 µg/mL (≈ 0.437 µM)	16 µg/mL (≈ 14 µM)	1 µg/mL (≈ 0.875 µM)	1 µg/mL (≈ 0.875 µM)	1 µg/mL (≈ 0.875 µM)	1 µg/mL (≈ 0.875 µM)	<0.125 µg/mL	0.5 µg/mL (≈ 0.437 µM)
CCCCCCCC(=O)N[C@@H](CCN)C(=O)N[C@H](C(=O)N[C@@H](CN)C(=O)N[C@H]1CCNC(=O)[C@H]([C@@H](C)O)NC(=O)[C@H](CCN)NC(=O)[C@H](CCN)NC(=O)[C@H]([C@@H](C)O)NC(=O)[C@@H](CC(C)C)NC(=O)[C@H](CCN)NC1=O)[C@@H](C)O [Compound 33] (Octanoyl-[Dab]T[Dap][Dab][Dab][dL]T[Dab][Dab]T; lactam 4-C)	−2.80 log10 CFU/mL	−1.55 log10 CFU/mL	−1.40 log10 CFU/mL	<0.125 µg/mL	<0.125 µg/mL	1 µg/mL (≈ 0.885 µM)	0.5 µg/mL (≈ 0.443 µM)	0.5 µg/mL (≈ 0.443 µM)	8 µg/mL (≈ 7.08 µM)	0.5 µg/mL (≈ 0.443 µM)	0.25 µg/mL (≈ 0.221 µM)	0.5 µg/mL (≈ 0.443 µM)	0.25 µg/mL (≈ 0.221 µM)	<0.125 µg/mL	0.5 µg/mL (≈ 0.443 µM)
CCCCCCCC(=O)N[C@@H](CCN)C(=O)N[C@H](C(=O)N[C@@H](CN)C(=O)N[C@H]1CCNC(=O)[C@H]([C@@H](C)O)NC(=O)[C@H](CCN)NC(=O)[C@H](CCN)NC(=O)[C@H](C)NC(=O)[C@@H](CC(C)C)NC(=O)[C@H](CCN)NC1=O)[C@@H](C)O [Compound 35] (Octanoyl-[Dab]T[Dap][Dab][Dab][dL]A[Dab][Dab]T; lactam 4-C)	−3.12 log10 CFU/mL	−3.36 log10 CFU/mL	−1.60 log10 CFU/mL	<0.125 µg/mL	0.25 µg/mL (≈ 0.227 µM)	<0.125 µg/mL	0.5 µg/mL (≈ 0.455 µM)	0.5 µg/mL (≈ 0.455 µM)	16 µg/mL (≈ 14.6 µM)	0.5 µg/mL (≈ 0.455 µM)	0.5 µg/mL (≈ 0.455 µM)	0.5 µg/mL (≈ 0.455 µM)	0.25 µg/mL (≈ 0.227 µM)	<0.125 µg/mL	0.5 µg/mL (≈ 0.455 µM)
CCCCCCCC(=O)N[C@@H](CCN)C(=O)N[C@H](C(=O)N[C@@H](CN)C(=O)N[C@H]1CCNC(=O)[C@H]([C@@H](C)O)NC(=O)[C@H](CCN)NC(=O)[C@H](CCN)NC(=O)[C@H](CC)NC(=O)[C@@H](CC(C)C)NC(=O)[C@H](CCN)NC1=O)[C@@H](C)O [Compound 46] (Octanoyl-[Dab]T[Dap][Dab][Dab][dL][Abu][Dab][Dab]T; lactam 4-C)	−2.93 log10 CFU/mL	−2.53 log10 CFU/mL	−1.56 log10 CFU/mL	<0.125 µg/mL	0.25 µg/mL (≈ 0.225 µM)	<0.125 µg/mL	0.5 µg/mL (≈ 0.449 µM)	0.5 µg/mL (≈ 0.449 µM)	2 µg/mL (≈ 1.8 µM)	0.25 µg/mL (≈ 0.225 µM)	0.25 µg/mL (≈ 0.225 µM)	0.25 µg/mL (≈ 0.225 µM)	0.25 µg/mL (≈ 0.225 µM)	<0.125 µg/mL	0.5 µg/mL (≈ 0.449 µM)
